Measurements from EP1484329A1, “Indole derivatives with apoptosis inducing activity” (Zentaris GmbH, priority 2003, dated 2004).
Converted amounts (≈) assume the structure as drawn. Where two headings read alike, the source gives them in different places.

Assays:
RKOp27 = assay: XTT proliferation assay, RKOp27 cell system with / without induced p27kip1 expression; type: cell-based; details: Homo sapiens
Description: (§1) Die Substanzen 1,2, 4-6 wurden in einem Proliferationstest an etablierten Tumorzelllinien auf ihre anti-proliferative Aktivität hin untersucht (D.A. Scuderio et al. Cancer Res. 1988, 48, 4827-4833). Der verwendete Test bestimmt die zelluläre Dehydrogenase-Aktivität und ermöglicht eine Bestimmung der Zellvitalität und indirekt der Zellzahl. Bei den verwendeten Zelllinien handelt es sich um die humane Cervixkarzinom Zelllinie KB/HeLa (ATCC CCL17), die ovariale Adenokarzinomzelllinie SKOV-3 (ATCC HTB77), die humane Glioblastom Zelllinie SF-268 (NCI 503138) und die Lungenkarzinom Zelllinie NCI-H460 (NCI 503473). Des weiteren wurde zur Untersuchung der Zellzyklus-spezifischen Wirkung der Substanz ein RKOp27 Zellsystem verwendet (M. Schmidt et al. Oncogene19(20):2423-9, 2000). Bei RKO handelt es sich um eine humane Kolonkarzinomlinie, in der der Zellzyklusinhibitor p27 ^kip1 mittels des Ecdyson Expressionssystems induziert zur Expression gebracht und zu einem Zellzyklusarrest spezifisch in G2 geführt werden kann. Eine unspezifisch wirkende Substanz hemmt die Proliferation unabhängig davon, ob die RKO Zelle in G1 oder G2 arretiert ist oder nicht. Zellzyklus-spezifische Substanzen wie beispielsweise Tubulininhibitoren sind hingegen nur dann zytotoxisch, wenn Zellen nicht arretiert sind und der Zellzyklus durchlaufen wird. In Tabelle 1 ist die zytotoxische bzw. wachstumshemmende Aktivität der beschriebenen Verbindungen mit / ohne Expression von p27^kip1gezeigt. Die getesteten Verbindungen zeigten im induzierten Zustand von p27^kiP1 keine zytotoxische Aktivität. Die Ergebnisse zeigen eine sehr potente Hemmung der Proliferation ausgewählter Tumorzelllinien durch die genannten Substanzen.

HT29 = assay: XTT proliferation assay, HT29; type: cell-based, human; details: Homo sapiens, read-out: XTT Proliferationsassay, EC50 HT29
Description: as §1, with “Substanzen. Tabelle 1:” for “Substanzen.”
(§2) Zur weiteren Charakterisierung wurden die Substanzen 1-6 an einem Panel von 7 humanen Tumorzelllinien auf ihre anti-proliferative Wirkung hin untersucht. Bei den untersuchten Zelllinien handelt es sich um die humanen Glioma Zelllinien A172 (ATCC CRL-1620) und U118 (ATCC HTB-15), die humane Lungenkarzinom Zelllinie A549, das humane epidermoide Karzinom A431 (ATCC CRL-2592), die humanen Prostatakarzinom Zelllinien DU145 (ATCC HTB-81) und PC3 (ATCC CRL-1435) und die humane Kolon Adenokarzinomzelllinie HT29 (ATCC HTB-38). Es handelt sich hierbei um sehr gut charakterisierte, etablierte Zelllinien, die von ATCC, ECACC bzw. NCI erhalten und in Kultur genommen wurden. Die in Tab. […]

A549 = assay: XTT proliferation assay, A549; type: cell-based, human; details: Homo sapiens, read-out: XTT Proliferationsassay, EC50 A549
Description: as §1, with “Substanzen. Tabelle 1:” for “Substanzen.”
as §2

A431 = assay: XTT proliferation assay, A431; type: cell-based, human; details: Homo sapiens, read-out: XTT Proliferationsassay, EC50 A431
Description: as §1, with “Substanzen. Tabelle 1:” for “Substanzen.”
as §2

DU145 = assay: XTT proliferation assay, DU145; type: cell-based, human; details: Homo sapiens, read-out: XTT Proliferationsassay, EC50 DU145
Description: as §1, with “Substanzen. Tabelle 1:” for “Substanzen.”
as §2

PC3 = assay: XTT proliferation assay, PC3; type: cell-based, human; details: Homo sapiens, read-out: XTT Proliferationsassay, EC50 PC3
Description: as §1, with “Substanzen. Tabelle 1:” for “Substanzen.”
as §2

A172 = assay: XTT proliferation assay, A172; type: cell-based, human; details: Homo sapiens, read-out: XTT Proliferationsassay, EC50 A172
Description: as §1, with “Substanzen. Tabelle 1:” for “Substanzen.”
as §2

Rindertubulin = assay: Inhibition of tubulin polymerisation in vitro; type: biochemical, Rind; details: Tubulin with 30% MAPs; mean of two independent experiments
Description: In diesem Test wird durch Zyklen von Polymerisation und Depolymerisation aufgereinigtes Tubulin eingesetzt, welches durch Zugabe von GTP und Erwärmung zur Polymerisation gebracht wird. […]

DNA-Topoisomerase II = DNA-Topoisomerase II (Homo sapiens, UniProt P11388); assay: kDNA decatenation assay for topoisomerase II activity; type: biochemical; details: tested at 100, 31.6 and 10 µM
Procedure: In diesem von P. Arimondo (Anti-Cancer Drug Design 2000, 15 (6), 413-421) beschriebenen Assay wird kDNA mit humaner DNA-Topoisomerase II in Abwesenheit oder Gegenwart der Testverbindungen behandelt. Die Testung der erfindungsgemäßen Verbindungen 2, 4 und 5 erfolgte hierbei bei drei unterschiedlichen Konzentrationen (100, 31.6 und 10 µM). Zum Vergleich setzte man eine Positivkontrolle und die Referenzverbindungen m-Amsacrin (m-Amsa), Paclitaxel und Vincristine bei einer jeweiligen Konzentration von 100µM ein.
Zu 1µL vorgelegter Testsubstanz (20fach konzentriert in 100% DMSO) werden 2µL 10x Assay Puffer, 1µL kDNA (200ng), 0.5µL human Topoisomerase II (1 unit) und 15,5µL H2O pipettiert und gemischt.
Die Reaktionsansätze werden in den auf 37°C vorgeheizten Heizblock gestellt und 10min bei 37°C inkubiert. Die Inkubation wird nach Zugabe von 4µL 5x Stop Puffer gestoppt und nachfolgend die Substanz mit CIA extrahiert. Danach werden 20µL des Überstandes auf ein 1 % Agarosegel mit 0,25µg/mL Ethidiumbromid aufgetragen und 1h bei 100V aufgetrennt. Zum Schluss wird das Gel unter UV-Anregung fotografiert (s. Graph 1). Die Quantifizierung der Inhibierung der Decatenation von kDNA erfolgt mit der GeIPro® Analyzer Software (s. Graph 2) [formula] [formula]

[1] = RKOP27, without expression of p27kip1, read-out: XTT Proliferationsassay, EC50 RKOP27
[2] = RKOP27 ind., p27kip1 expression induced (cells arrested), read-out: XTT Proliferationsassay, EC50 RKOP27 ind.

Sequence of DNA-Topoisomerase II (P11388 whole entry): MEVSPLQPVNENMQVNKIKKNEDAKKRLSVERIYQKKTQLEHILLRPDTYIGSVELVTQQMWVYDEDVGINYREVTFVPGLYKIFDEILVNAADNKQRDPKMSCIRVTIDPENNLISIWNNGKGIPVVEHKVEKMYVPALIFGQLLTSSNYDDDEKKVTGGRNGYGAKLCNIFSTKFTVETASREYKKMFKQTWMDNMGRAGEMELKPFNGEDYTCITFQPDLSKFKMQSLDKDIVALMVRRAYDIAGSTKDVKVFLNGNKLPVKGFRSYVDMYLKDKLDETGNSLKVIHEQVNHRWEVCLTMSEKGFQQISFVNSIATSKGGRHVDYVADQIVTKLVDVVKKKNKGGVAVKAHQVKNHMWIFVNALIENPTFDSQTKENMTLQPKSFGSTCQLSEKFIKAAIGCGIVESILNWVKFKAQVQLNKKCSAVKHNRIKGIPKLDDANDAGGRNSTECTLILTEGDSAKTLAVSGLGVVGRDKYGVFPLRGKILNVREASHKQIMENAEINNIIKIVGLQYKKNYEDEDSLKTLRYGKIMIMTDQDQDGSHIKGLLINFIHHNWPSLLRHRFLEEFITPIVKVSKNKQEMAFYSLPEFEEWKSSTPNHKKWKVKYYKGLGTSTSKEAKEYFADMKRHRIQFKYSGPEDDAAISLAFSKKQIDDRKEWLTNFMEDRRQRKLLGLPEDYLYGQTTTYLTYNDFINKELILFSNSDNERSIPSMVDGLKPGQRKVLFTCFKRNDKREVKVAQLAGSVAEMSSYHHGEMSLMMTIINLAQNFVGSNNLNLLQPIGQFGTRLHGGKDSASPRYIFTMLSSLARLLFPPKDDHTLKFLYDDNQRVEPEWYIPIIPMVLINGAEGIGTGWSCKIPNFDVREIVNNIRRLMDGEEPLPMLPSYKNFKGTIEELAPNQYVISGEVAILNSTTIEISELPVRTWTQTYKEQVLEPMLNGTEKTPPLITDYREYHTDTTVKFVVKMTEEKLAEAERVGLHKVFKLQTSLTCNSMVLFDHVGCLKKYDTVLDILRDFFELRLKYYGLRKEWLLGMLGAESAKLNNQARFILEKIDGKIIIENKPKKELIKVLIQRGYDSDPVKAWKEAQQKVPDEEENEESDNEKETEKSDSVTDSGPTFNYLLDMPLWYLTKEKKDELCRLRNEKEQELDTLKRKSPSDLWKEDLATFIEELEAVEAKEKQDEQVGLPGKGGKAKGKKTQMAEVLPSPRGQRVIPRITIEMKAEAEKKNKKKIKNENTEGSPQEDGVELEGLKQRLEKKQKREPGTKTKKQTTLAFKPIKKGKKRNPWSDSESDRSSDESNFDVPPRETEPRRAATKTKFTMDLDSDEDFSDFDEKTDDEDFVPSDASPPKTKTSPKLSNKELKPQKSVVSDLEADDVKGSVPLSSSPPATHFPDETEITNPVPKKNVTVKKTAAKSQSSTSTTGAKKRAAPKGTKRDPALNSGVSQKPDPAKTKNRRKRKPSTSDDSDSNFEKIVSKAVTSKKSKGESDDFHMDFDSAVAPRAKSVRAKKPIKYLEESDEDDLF

Compound	EC50 (RKOp27; [1]) [µg/mL]	EC50 (RKOp27; [2]) [µg/mL]	EC50 (HT29; HT-29) [µg/mL]	EC50 (A549; A549) [µg/mL]	EC50 (A431; A-431) [µg/mL]	EC50 (DU145; DU-145) [µg/mL]	EC50 (PC3; PC-3) [µg/mL]	EC50 (A172; A 172) [µg/mL]	Hemmung der Tubulin-Polymerisation, EC50 (Rindertubulin) [µg/mL]	Hemmung der Topoisomerase II (kDNA Assay) (DNA-Topoisomerase II)	EC50 (HT29; HT-29, HT29) [µg/mL]	EC50 (A549; A549, A549) [µg/mL]	EC50 (A431; A-431, A431) [µg/mL]	EC50 (DU145; DU-145, DU145) [µg/mL]	EC50 (PC3; PC-3, PC3) [µg/mL]	EC50 (A172; A 172, A172) [µg/mL]
O=C(Nc1ccc2ncccc2c1)C(=O)c1cn(Cc2ccc(Cl)cc2)c2ccccc12 [Verbindung 2, 2-[1-(4-Chlor-benzyl)-1 H-indol-3-yl]-2-oxo-N-chinolin-6-yl-acetamid]	0.047 (≈ 0.107 µM)	> 3.16	0.027 (≈ 0.0614 µM)	0.05 (≈ 0.114 µM)	0.014 (≈ 0.0318 µM)	0.047 (≈ 0.107 µM)	0.016 (≈ 0.0364 µM)	0.024 (≈ 0.0546 µM)	1.23	signifikante Hemmung der Topoisomerase II						
O=C(Nc1ccc2ncccc2c1)C(=S)c1cn(Cc2ccc(Cl)cc2)c2ccccc12 [Verbindung 4, 2-[1-(4-Chlorbenzyl)-1 H-indol-3-yl]-N-chinolin-6-yl-2-thioxoacetamid]	0.053 (≈ 0.116 µM)	> 3.16							0.97	signifikante Hemmung der Topoisomerase II	0.04 (≈ 0.0877 µM)	0.041 (≈ 0.0899 µM)	0.016 (≈ 0.0351 µM)	0.045 (≈ 0.0987 µM)	0.027 (≈ 0.0592 µM)	0.043 (≈ 0.0943 µM)
O=C(Nc1cnc2nccnc2c1)C(=O)c1cn(Cc2ccc(Cl)cc2)c2ccccc12 [Verbindung 5, 2-[1-(4-Chlor-benzyl)-1H-indol-3-yl]-2-oxo-N-pyrido[2,3-b]pyrazin-7-yl-acetamid]	0.065 (≈ 0.147 µM)	> 3.16							0.71	Inhibierung der Topoisomerase II	0.07 (≈ 0.158 µM)	0.017 (≈ 0.0385 µM)	0.011 (≈ 0.0249 µM)	0.035 (≈ 0.0792 µM)	0.03 (≈ 0.0679 µM)	0.019 (≈ 0.043 µM)
